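The compound was tested at five concentrations on cells cultured in 96-well plates, with a 48-hour exposure period. Definition used: TGI = concentration required for complete inhibition of growth.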
Assays:
Experiment in all cases: NCI-60 cell line screen, 48 h
ACHN renal = test system: ACHN renal
MDA-N = test system: MDA-N
NCI-H522 lung = test system: NCI-H522 lung
HOP-92 NSCLC = test system: HOP-92 NSCLC
HT29 colon = test system: HT29 colon
UACC-257 melanoma = test system: UACC-257 melanoma
SF-539 CNS = test system: SF-539 CNS
HOP-62 NSCLC = test system: HOP-62 NSCLC
HCT-15 colon = test system: HCT-15 colon
SNB-75 CNS = test system: SNB-75 CNS
TK-10 renal = test system: TK-10 renal
HS 578T breast = test system: HS 578T breast
OVCAR-4 ovarian = test system: OVCAR-4 ovarian
SN12C renal = test system: SN12C renal
K-562 leukemia = test system: K-562 leukemia
RPMI-8226 leukemia = test system: RPMI-8226 leukemia
A498 renal = test system: A498 renal
SW-620 colon = test system: SW-620 colon
PC-3 prostate = test system: PC-3 prostate
NCI-H23 lung = test system: NCI-H23 lung
MOLT-4 leukemia = test system: MOLT-4 leukemia
BT-549 breast = test system: BT-549 breast
M14 melanoma = test system: M14 melanoma
COLO 205 colon = test system: COLO 205 colon
OVCAR-5 ovarian = test system: OVCAR-5 ovarian
CAKI-1 renal = test system: CAKI-1 renal
SF-268 CNS = test system: SF-268 CNS
T-47D breast = test system: T-47D breast
NCI-H460 lung = test system: NCI-H460 lung
MCF7 breast = test system: MCF7 breast
SK-MEL-5 melanoma = test system: SK-MEL-5 melanoma
HCT-116 colon = test system: HCT-116 colon
EKVX NSCLC = test system: EKVX NSCLC
MDA-MB-231 breast = test system: MDA-MB-231 breast
UACC-62 melanoma = test system: UACC-62 melanoma
A549 NSCLC = test system: A549 NSCLC
DU-145 prostate = test system: DU-145 prostate
IGROV1 ovarian = test system: IGROV1 ovarian
NCI-H226 lung = test system: NCI-H226 lung
RXF 393 renal = test system: RXF 393 renal
SNB-19 CNS = test system: SNB-19 CNS
786-0 renal = test system: 786-0 renal
MDA-MB-435 = test system: MDA-MB-435
OVCAR-8 ovarian = test system: OVCAR-8 ovarian
HCC-2998 colon = test system: HCC-2998 colon
U251 CNS = test system: U251 CNS
UO-31 renal = test system: UO-31 renal
SK-OV-3 ovarian = test system: SK-OV-3 ovarian
SK-MEL-28 melanoma = test system: SK-MEL-28 melanoma
SF-295 CNS = test system: SF-295 CNS
SK-MEL-2 melanoma = test system: SK-MEL-2 melanoma
LOX IMVI melanoma = test system: LOX IMVI melanoma
KM12 colon = test system: KM12 colon
HL-60(TB) leukemia = test system: HL-60(TB) leukemia
CCRF-CEM leukemia = test system: CCRF-CEM leukemia
NCI/ADR-RES ovarian = test system: NCI/ADR-RES ovarian
MALME-3M melanoma = test system: MALME-3M melanoma
OVCAR-3 ovarian = test system: OVCAR-3 ovarian

`C#CCCCCC#Cc1ccccc1C(=O)C=[N+]=[N-]` was tested, and the TGI (ACHN renal) was over 100 µM, the TGI (MDA-N) was over 100 µM and the TGI (NCI-H522 lung) was over 100 µM. It also gave a TGI (HOP-92 NSCLC) of over 100 µM, a TGI (HT29 colon) of over 100 µM and a TGI (UACC-257 melanoma) of over 100 µM. It also gave a TGI (SF-539 CNS) of over 100 µM, a TGI (HOP-62 NSCLC) of over 100 µM and a TGI (HCT-15 colon) of over 100 µM. It also gave a TGI (SNB-75 CNS) of over 100 µM, a TGI (TK-10 renal) of over 100 µM and a TGI (HS 578T breast) of over 100 µM. It also gave a TGI (OVCAR-4 ovarian) of over 100 µM, a TGI (SN12C renal) of over 100 µM and a TGI (K-562 leukemia) of over 100 µM. For the same molecule, the TGI (RPMI-8226 leukemia) was over 100 µM, the TGI (A498 renal) was over 100 µM and the TGI (SW-620 colon) was over 100 µM. For the same molecule, the TGI (PC-3 prostate) was over 100 µM, the TGI (NCI-H23 lung) was over 100 µM and the TGI (MOLT-4 leukemia) was over 100 µM. For the same molecule, the TGI (BT-549 breast) was over 100 µM, the TGI (M14 melanoma) was over 100 µM and the TGI (COLO 205 colon) was over 100 µM. It also gave a TGI (OVCAR-5 ovarian) of over 100 µM, a TGI (CAKI-1 renal) of over 100 µM and a TGI (SF-268 CNS) of over 100 µM. The TGI (T-47D breast) was over 100 µM, the TGI (NCI-H460 lung) was over 100 µM and the TGI (MCF7 breast) was over 100 µM. For the same molecule, the TGI (SK-MEL-5 melanoma) was over 100 µM, the TGI (HCT-116 colon) was over 100 µM and the TGI (EKVX NSCLC) was over 100 µM. For the same molecule, the TGI (MDA-MB-231 breast) was over 100 µM, the TGI (UACC-62 melanoma) was over 100 µM and the TGI (A549 NSCLC) was over 100 µM. It also gave a TGI (DU-145 prostate) of over 100 µM, a TGI (IGROV1 ovarian) of over 100 µM and a TGI (NCI-H226 lung) of over 100 µM. For the same molecule, the TGI (RXF 393 renal) was over 100 µM, the TGI (SNB-19 CNS) was over 100 µM and the TGI (786-0 renal) was over 100 µM. The TGI (MDA-MB-435) was over 100 µM, the TGI (OVCAR-8 ovarian) was over 100 µM and the TGI (HCC-2998 colon) was over 100 µM. The TGI (U251 CNS) was over 100 µM, the TGI (UO-31 renal) was over 100 µM and the TGI (SK-OV-3 ovarian) was over 100 µM. The TGI (SK-MEL-28 melanoma) was over 100 µM, the TGI (SF-295 CNS) was over 100 µM and the TGI (SK-MEL-2 melanoma) was over 100 µM.
`CCOP(=O)(CN1CCNCCN(CP(=O)(OCC)OCC)CC1)OCC` gave a TGI (ACHN renal) of over 100 µM, a TGI (MDA-N) of over 100 µM and a TGI (NCI-H522 lung) of over 100 µM. It also gave a TGI (HOP-92 NSCLC) of over 100 µM, a TGI (HT29 colon) of over 100 µM and a TGI (UACC-257 melanoma) of over 100 µM. The TGI (SF-539 CNS) was over 100 µM, the TGI (HOP-62 NSCLC) was over 100 µM and the TGI (HCT-15 colon) was over 100 µM. The TGI (LOX IMVI melanoma) was over 100 µM, the TGI (SNB-75 CNS) was over 100 µM and the TGI (TK-10 renal) was over 100 µM. For the same molecule, the TGI (HS 578T breast) was over 100 µM, the TGI (OVCAR-4 ovarian) was over 100 µM and the TGI (SN12C renal) was over 100 µM. The TGI (K-562 leukemia) was over 100 µM, the TGI (KM12 colon) was over 100 µM and the TGI (RPMI-8226 leukemia) was over 100 µM. For the same molecule, the TGI (A498 renal) was over 100 µM, the TGI (SW-620 colon) was over 100 µM and the TGI (PC-3 prostate) was over 100 µM. The TGI (NCI-H23 lung) was over 100 µM, the TGI (MOLT-4 leukemia) was over 100 µM and the TGI (BT-549 breast) was over 100 µM. For the same molecule, the TGI (M14 melanoma) was over 100 µM, the TGI (COLO 205 colon) was over 100 µM and the TGI (OVCAR-5 ovarian) was over 100 µM. The TGI (CAKI-1 renal) was over 100 µM, the TGI (SF-268 CNS) was over 100 µM and the TGI (T-47D breast) was over 100 µM. The TGI (NCI-H460 lung) was over 100 µM, the TGI (HL-60(TB) leukemia) was over 100 µM and the TGI (MCF7 breast) was over 100 µM. For the same molecule, the TGI (SK-MEL-5 melanoma) was over 100 µM, the TGI (HCT-116 colon) was over 100 µM and the TGI (EKVX NSCLC) was over 100 µM. For the same molecule, the TGI (MDA-MB-231 breast) was over 100 µM, the TGI (UACC-62 melanoma) was over 100 µM and the TGI (A549 NSCLC) was over 100 µM. For the same molecule, the TGI (CCRF-CEM leukemia) was over 31.6 µM, the TGI (DU-145 prostate) was over 100 µM and the TGI (NCI/ADR-RES ovarian) was over 100 µM. For the same molecule, the TGI (IGROV1 ovarian) was over 100 µM, the TGI (NCI-H226 lung) was over 100 µM and the TGI (RXF 393 renal) was over 100 µM. The TGI (MALME-3M melanoma) was over 30.4 µM, the TGI (SNB-19 CNS) was over 100 µM and the TGI (786-0 renal) was over 100 µM. It also gave a TGI (MDA-MB-435) of over 100 µM, a TGI (OVCAR-8 ovarian) of over 100 µM and a TGI (U251 CNS) of over 100 µM. For the same molecule, the TGI (UO-31 renal) was over 100 µM, the TGI (SK-OV-3 ovarian) was over 100 µM and the TGI (SK-MEL-28 melanoma) was over 100 µM. It also gave a TGI (SF-295 CNS) of over 100 µM, a TGI (SK-MEL-2 melanoma) of over 100 µM and a TGI (OVCAR-3 ovarian) of over 100 µM.
